In PMC4447944 (The Journal of Biological Chemistry, 2015):

What was measured:
[1] = tested on: SMYD2-mediated methylation of p53 Lys370; assay: Western blot for p53 Lys370me1, HEK293 cells co-transfected with FLAG-SMYD2 and FLAG-p53; assay type: cell-based; conditions: Homo sapiens, 0–2.5 μM, 28 h, read-out: IC50, decrease in p53 Lys370me1
Experimental: Cell lysates were subject to 10% SDS-PAGE and transferred to a PVDF membrane. Each membrane was blocked in Odyssey Blocking Buffer (LI-COR Biosciences) and incubated with monoclonal anti-p53 (D01) antibody (Abcam, ab1101) or rabbit anti-p53 Lys^370me1 antibody (a kind gift from Dr. Shelley Berger) followed by detection with IRDye®680RD goat anti-mouse IgG (LI-COR Biosciences) and IRDye800CW goat anti-rabbit IgG (LI-COR Biosciences) on the Odyssey Imager (LI-COR Biosciences). […] 4–8 h later, cells were treated with 0–25 μM compound for 15 h. […] 24 h later, cells were lysed with 200 μl of MSD Tris Lysis Buffer^TM (Meso Scale Discovery). A MULTI-ARRAY^TM 96-well plate (Meso Scale Discovery, catalog number L15XA-3) was precoated with 2 μg/ml custom-made methyl-p53 antibody (Lampire) in PBS overnight at 4 °C. 150 μl/well MSD Blocking Solution A^TM (final concentration of 3%) was added followed by shaking at room temperature for 1 h. The plate was washed three times with 1× MSD Tris Wash Buffer^TM (Meso Scale Discovery). 0.5 μg of cell lysate in 25 μl/well MSD Tris Lysis Buffer was added, followed by shaking overnight at 4 °C. […] Following a final wash three times with 1× MSD Tris Wash Buffer, 150 μl/well 1× MSD Read Buffer^TM (Meso Scale Discovery) was added, and plates were read on an MSD SECTOR^TM Imager 6000 instrument (Meso Scale Discovery).

[2] = molecular target: T1, hABL1(pF317I) (Homo sapiens, UniProt P00519, F317I); assay: KINOMEscan; assay type: binding
T1 construct: purchased DiscoverX (KINOMEscan platform)

[3] = molecular target: T2, hABL1(pY253F) (Homo sapiens, UniProt P00519, Y253F); assay: KINOMEscan; assay type: binding
T2 construct: purchased DiscoverX (KINOMEscan platform)

[4] = molecular target: T3, hABL2 (Homo sapiens, UniProt P42684); assay: KINOMEscan; assay type: binding
T3 construct: purchased DiscoverX (KINOMEscan platform)

[5] = molecular target: T4, hACVR2B (Homo sapiens, UniProt Q13705); assay: KINOMEscan; assay type: binding
T4 construct: purchased DiscoverX (KINOMEscan platform)

[6] = molecular target: T5, hBIKE (Homo sapiens, UniProt Q9NSY1); assay: KINOMEscan; assay type: binding
T5 construct: purchased DiscoverX

[7] = molecular target: T6, hBTK (Homo sapiens, UniProt Q06187); assay: KINOMEscan; assay type: binding
T6 construct: purchased DiscoverX

[8] = molecular target: T7, hCAMK1D (Homo sapiens, UniProt Q8IU85); assay: KINOMEscan; assay type: binding
T7 construct: purchased DiscoverX
T7 sequence (Q8IU85 whole entry): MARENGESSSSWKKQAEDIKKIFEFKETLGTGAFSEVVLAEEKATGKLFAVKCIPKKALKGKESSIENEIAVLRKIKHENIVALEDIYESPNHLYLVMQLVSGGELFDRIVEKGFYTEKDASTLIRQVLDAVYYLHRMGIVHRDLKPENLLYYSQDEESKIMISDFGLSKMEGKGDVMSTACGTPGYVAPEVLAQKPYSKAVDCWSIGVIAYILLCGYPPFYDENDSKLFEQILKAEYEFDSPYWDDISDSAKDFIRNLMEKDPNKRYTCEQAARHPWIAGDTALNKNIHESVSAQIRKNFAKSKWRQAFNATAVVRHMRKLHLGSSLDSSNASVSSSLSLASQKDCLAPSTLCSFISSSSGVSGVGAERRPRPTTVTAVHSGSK

[9] = molecular target: T8, hCSF1R-autoinhib (Homo sapiens, UniProt P07333); assay: KINOMEscan; assay type: binding; conditions: read-out: Inhibition at the 20 μM dose
T8 construct: purchased DiscoverX (KINOMEscan platform)
T8 sequence (P07333 539-972 limits assumed): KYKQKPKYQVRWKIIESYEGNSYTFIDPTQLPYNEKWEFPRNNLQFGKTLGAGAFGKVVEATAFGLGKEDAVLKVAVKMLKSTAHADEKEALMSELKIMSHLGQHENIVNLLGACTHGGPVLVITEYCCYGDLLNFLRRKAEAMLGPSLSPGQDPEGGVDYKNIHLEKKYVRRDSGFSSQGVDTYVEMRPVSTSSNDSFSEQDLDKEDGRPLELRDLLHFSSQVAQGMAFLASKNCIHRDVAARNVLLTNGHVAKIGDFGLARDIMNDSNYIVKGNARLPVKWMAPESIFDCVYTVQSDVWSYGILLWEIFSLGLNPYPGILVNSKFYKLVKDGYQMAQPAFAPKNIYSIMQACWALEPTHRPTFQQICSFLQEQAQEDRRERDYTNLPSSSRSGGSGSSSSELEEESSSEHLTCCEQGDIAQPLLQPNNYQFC

[10] = molecular target: T9, hDAPK3 (Homo sapiens, UniProt O43293); assay: KINOMEscan; assay type: binding
T9 construct: purchased DiscoverX (KINOMEscan platform)
T9 sequence (O43293 whole entry): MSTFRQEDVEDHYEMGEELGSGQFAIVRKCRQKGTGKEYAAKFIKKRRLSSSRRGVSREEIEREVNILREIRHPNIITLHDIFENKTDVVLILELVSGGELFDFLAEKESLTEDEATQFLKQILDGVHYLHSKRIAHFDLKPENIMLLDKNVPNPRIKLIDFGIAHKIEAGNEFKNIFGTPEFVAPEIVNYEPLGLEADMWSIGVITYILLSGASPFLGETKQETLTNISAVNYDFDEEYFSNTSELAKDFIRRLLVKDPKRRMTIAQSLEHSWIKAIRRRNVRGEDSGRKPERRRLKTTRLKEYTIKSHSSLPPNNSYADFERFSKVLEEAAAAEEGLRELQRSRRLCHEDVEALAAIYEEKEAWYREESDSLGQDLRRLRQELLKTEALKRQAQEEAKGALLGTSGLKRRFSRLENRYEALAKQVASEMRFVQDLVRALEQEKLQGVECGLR

[11] = molecular target: T10, hEGFR(S752-I759del) (Homo sapiens, UniProt P00533, DEL752-759); assay: KINOMEscan; assay type: binding
T10 construct: purchased DiscoverX
T10 sequence (P00533 with tags, fused parts or gaps DEL752-759): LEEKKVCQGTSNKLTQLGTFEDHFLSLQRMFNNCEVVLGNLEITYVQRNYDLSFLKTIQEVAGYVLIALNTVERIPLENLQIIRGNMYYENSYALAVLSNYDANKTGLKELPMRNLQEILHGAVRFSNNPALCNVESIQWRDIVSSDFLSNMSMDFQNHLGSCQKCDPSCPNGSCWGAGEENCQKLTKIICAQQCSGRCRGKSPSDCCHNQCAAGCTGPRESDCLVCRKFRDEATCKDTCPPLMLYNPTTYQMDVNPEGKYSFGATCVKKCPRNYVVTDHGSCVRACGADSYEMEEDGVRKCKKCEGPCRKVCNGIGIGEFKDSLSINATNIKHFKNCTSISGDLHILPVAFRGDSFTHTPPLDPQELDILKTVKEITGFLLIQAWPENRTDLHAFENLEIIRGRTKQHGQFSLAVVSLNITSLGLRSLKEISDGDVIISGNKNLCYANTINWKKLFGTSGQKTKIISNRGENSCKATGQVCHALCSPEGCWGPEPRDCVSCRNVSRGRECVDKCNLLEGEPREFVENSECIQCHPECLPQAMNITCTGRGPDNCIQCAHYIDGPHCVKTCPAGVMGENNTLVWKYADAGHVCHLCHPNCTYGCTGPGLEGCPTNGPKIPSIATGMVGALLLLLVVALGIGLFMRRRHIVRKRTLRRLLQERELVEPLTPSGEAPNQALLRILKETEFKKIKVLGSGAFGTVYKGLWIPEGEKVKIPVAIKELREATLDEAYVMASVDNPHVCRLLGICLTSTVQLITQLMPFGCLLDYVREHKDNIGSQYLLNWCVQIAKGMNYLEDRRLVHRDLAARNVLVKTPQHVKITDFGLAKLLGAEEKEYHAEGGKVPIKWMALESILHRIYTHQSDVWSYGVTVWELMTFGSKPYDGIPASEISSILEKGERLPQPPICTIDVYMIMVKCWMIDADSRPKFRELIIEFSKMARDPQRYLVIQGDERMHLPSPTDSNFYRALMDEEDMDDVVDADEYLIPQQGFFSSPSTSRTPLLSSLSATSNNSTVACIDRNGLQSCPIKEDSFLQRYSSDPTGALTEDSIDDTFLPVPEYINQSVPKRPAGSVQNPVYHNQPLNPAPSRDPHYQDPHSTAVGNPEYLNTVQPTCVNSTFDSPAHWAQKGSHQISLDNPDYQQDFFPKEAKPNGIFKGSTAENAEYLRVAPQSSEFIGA

[12] = molecular target: T11, hEPHB6 (Homo sapiens, UniProt O15197); assay: KINOMEscan; assay type: binding
T11 construct: purchased DiscoverX

[13] = molecular target: hFLT3(ITD); assay: KINOMEscan; assay type: binding, human
Chain of hFLT3(ITD) (P36888 27-993, change not shown): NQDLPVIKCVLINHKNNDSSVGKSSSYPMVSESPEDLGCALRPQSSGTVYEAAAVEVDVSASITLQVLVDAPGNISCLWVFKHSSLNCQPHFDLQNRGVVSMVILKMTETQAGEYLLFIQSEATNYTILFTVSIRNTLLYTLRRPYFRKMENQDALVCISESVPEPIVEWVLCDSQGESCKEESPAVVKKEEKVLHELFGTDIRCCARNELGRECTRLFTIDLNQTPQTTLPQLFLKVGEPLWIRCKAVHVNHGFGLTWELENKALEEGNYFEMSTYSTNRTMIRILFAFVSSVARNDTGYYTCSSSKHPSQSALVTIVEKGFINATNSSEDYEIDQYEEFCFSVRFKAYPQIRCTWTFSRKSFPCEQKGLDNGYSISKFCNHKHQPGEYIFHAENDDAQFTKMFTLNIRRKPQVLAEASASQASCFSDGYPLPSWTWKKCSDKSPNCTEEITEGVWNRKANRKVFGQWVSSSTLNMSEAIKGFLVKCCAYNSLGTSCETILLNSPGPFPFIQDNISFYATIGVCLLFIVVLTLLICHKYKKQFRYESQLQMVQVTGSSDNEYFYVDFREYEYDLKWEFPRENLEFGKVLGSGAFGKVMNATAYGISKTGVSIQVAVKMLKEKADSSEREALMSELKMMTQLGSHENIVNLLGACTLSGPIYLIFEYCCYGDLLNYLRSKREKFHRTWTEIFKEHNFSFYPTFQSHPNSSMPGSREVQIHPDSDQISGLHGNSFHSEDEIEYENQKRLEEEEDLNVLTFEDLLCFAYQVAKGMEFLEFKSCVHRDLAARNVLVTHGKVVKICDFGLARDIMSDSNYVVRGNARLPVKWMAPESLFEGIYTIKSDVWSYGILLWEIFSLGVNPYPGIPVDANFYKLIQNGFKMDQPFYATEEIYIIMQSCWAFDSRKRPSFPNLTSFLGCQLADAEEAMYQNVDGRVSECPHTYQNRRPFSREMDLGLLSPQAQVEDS

[14] = molecular target: T12, hGRK1 (Homo sapiens, UniProt Q15835); assay: KINOMEscan; assay type: binding
T12 construct: purchased DiscoverX

[15] = molecular target: T13, hMAK (Homo sapiens, UniProt P20794); assay: KINOMEscan; assay type: binding
T13 construct: purchased DiscoverX (KINOMEscan platform)

[16] = molecular target: T14, hMET (Homo sapiens, UniProt P08581); assay: KINOMEscan; assay type: binding
T14 construct: purchased DiscoverX

[17] = molecular target: T15, hMKK7 (Homo sapiens, UniProt O14733); assay: KINOMEscan; assay type: binding
T15 construct: purchased DiscoverX
T15 sequence (O14733 whole entry): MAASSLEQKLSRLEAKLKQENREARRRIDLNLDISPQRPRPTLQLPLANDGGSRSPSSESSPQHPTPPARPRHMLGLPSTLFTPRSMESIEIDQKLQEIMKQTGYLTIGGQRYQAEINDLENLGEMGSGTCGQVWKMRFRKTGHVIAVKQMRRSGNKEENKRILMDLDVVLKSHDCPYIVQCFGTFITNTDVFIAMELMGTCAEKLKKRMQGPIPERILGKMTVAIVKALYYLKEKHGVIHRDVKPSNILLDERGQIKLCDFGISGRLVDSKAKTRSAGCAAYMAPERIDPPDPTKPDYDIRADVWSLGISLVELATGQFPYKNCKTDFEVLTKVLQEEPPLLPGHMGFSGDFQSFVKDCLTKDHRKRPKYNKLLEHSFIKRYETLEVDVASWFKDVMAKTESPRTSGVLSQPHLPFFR

[18] = molecular target: T16, hMKNK2 (Homo sapiens, UniProt Q9HBH9); assay: KINOMEscan; assay type: binding
T16 construct: purchased DiscoverX

[19] = molecular target: T17, hRPS6KA5(Kin.Dom.1-N-term) (Homo sapiens, UniProt O75582); assay: KINOMEscan; assay type: binding
T17 construct: hRPS6KA5(Kin.Dom.1-N-term); purchased DiscoverX (KINOMEscan platform)

[20] = molecular target: T18, hTRKA (Homo sapiens, UniProt P04629); assay: KINOMEscan; assay type: binding
T18 construct: purchased DiscoverX

[21] = molecular target: T19, hTRKC (Homo sapiens, UniProt Q16288); assay: KINOMEscan; assay type: binding
T19 construct: purchased DiscoverX
T19 sequence (Q16288 32-839): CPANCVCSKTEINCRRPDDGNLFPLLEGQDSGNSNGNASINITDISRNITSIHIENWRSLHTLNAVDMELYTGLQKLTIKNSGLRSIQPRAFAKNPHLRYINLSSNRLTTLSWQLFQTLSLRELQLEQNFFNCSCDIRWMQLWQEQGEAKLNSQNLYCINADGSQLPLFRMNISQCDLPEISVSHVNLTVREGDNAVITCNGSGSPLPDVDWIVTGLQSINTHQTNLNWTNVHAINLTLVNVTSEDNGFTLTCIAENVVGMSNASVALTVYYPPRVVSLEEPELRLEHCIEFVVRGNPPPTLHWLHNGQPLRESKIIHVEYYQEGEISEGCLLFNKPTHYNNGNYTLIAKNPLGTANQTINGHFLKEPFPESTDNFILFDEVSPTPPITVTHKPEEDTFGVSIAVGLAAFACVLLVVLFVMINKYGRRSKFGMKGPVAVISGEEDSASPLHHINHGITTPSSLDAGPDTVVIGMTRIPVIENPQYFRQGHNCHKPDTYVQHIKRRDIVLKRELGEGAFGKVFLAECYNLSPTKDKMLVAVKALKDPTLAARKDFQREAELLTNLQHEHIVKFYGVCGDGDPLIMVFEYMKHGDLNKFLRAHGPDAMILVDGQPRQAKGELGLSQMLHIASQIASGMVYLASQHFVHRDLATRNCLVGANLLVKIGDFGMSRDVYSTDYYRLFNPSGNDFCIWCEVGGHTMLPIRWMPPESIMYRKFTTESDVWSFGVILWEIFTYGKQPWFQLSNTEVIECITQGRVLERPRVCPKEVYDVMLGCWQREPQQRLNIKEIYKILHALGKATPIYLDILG

[22] = molecular target: T20, hYANK1 (Homo sapiens, UniProt Q8WU08); assay: KINOMEscan; assay type: binding
T20 construct: purchased DiscoverX
T20 sequence (Q8WU08 whole entry): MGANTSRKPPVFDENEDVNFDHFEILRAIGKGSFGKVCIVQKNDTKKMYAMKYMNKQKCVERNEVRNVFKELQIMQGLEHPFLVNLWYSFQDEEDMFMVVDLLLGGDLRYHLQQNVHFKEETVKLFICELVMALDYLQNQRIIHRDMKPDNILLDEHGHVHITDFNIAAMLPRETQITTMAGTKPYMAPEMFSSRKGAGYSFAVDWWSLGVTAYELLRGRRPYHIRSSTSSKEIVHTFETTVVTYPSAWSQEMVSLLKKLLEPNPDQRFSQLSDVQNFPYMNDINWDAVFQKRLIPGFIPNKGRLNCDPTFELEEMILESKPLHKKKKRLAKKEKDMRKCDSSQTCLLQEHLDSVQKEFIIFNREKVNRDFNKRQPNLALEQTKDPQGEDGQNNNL

[23] = molecular target: T21, hADRα2A (Homo sapiens, UniProt P08913); assay: β-arrestin Antagonist (Eurofins-CEREP); conditions: read-out: % Effect, Inhibition
T21 sequence (P08913 1-465): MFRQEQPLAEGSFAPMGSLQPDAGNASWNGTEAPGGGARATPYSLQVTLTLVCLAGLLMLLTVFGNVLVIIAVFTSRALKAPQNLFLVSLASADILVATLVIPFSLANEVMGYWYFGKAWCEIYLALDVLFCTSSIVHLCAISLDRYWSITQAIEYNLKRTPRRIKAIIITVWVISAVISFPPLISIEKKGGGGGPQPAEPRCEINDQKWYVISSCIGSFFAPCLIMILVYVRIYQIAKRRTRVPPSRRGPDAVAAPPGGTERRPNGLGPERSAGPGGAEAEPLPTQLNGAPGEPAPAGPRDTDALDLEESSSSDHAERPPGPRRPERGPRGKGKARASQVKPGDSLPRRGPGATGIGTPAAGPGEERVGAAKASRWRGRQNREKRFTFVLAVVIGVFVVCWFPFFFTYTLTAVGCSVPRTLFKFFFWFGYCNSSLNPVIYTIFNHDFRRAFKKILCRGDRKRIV

[24] = molecular target: hD1 (Homo sapiens, UniProt P21728); assay: β-arrestin Antagonist (Eurofins-CEREP); conditions: read-out: % Effect, Inhibition

Question: Which results are given for `Cc1cn(CCN2CCN(c3ccccc3-c3cc(C#N)cc(C(=O)NCCCN4CCCC4)c3)CC2)c2ccccc12` [LLY-507, 3-cyano-5-{2-[4-[2-(3-methylindol-1-yl)ethyl]piperazin-1-yl]-phenyl}-N-[(3-pyrrolidin-1-yl)propyl]benzamide]?
Answer: IC50 [1]: < 1 µM; IC50 [2]: > 20 µM; IC50 [3]: > 20 µM; IC50 [4]: > 20 µM; IC50 [5]: > 20 µM; IC50 [6]: > 20 µM; IC50 [7]: > 20 µM; IC50 [8]: > 20 µM; inhibition at 20 µM [9]: < 50%; IC50 [10]: > 20 µM; IC50 [11]: > 20 µM; IC50 [12]: > 20 µM; IC50 [13]: > 20 µM; IC50 [14]: > 20 µM; IC50 [15]: > 20 µM; IC50 [16]: > 20 µM; IC50 [17]: > 20 µM; IC50 [18]: > 20 µM; IC50 [19]: > 20 µM; IC50 [20]: > 20 µM; IC50 [21]: > 20 µM; IC50 [22]: > 20 µM; inhibition at 10 µM [23]: -27.7%; inhibition at 10 µM [24]: 43.4%
